In patent US20050288299A1, “Azaindole derivatives as inhibitors of p38 kinase” (priority 2002, published 2005):

target: p38α kinase (Homo sapiens, UniProt Q16539); assay: p38α Flash Plate Assay (p38 kinase inhibition); type: biochemical; details: in vitro; 150 μM ATP, 0.05 mM biotinylated peptide substrate, 5 nM enzyme, 60 minute incubation at 30° Celsius; read-out: P38 α-FLASHPLATE IC50
Protocol: Assay for p38 Kinase Inhibition—p38α Flash Plate Assay
The compounds to be tested were solubilized in DMSO and diluted with water to the desired concentrations. The p38 kinase was diluted to 20 nM into a buffer containing 20 mM MOPS, pH 7.0, 25 mM beta-glycerol phosphate, 2 mg/ml gelatin, 0.5 mM EGTA (ethylene-bis-(oxyethylenenitrilo)-tetraacetic acid), and 4 mM dithiothreitol (DTT).
The reaction was carried out by mixing 20 μl test compound with 10 μl of a substrate cocktail containing 0.2 mM biotinylated peptide substrate and 0.6 mM ATP (+100 μCi/ml gamma-^33P-ATP) in a 5× assay buffer. The reaction was initiated by the addition of 10 μl of p38 kinase. Final assay conditions were 25 mM MOPS, pH 7.0, 26.25 mM beta-glycerol phosphate, 80 mM KCl, 22 mM MgCl2, 3 mM MgSO4, 1 mg/ml gelatin, 0.625 mM EGTA, 1 mM DTT, 0.05 mM peptide substrate, 150 μM ATP, and 5 nM enzyme. After a 60 minute incubation at 30° Celsius, the reaction was stopped by the addition of 10 μl per reaction of 0.25 M phosphoric acid.
A portion of the reaction was transferred to a streptavidin-coated Flash Plate (Perkin Elmer); the Flash Plate was incubated for 60 minutes at 30° Celsius and then washed 3× with PBS containing 0.01% Tween-20.
Counts incorporated are determined on a scintillation counter. Relative enzyme activity was calculated by subtracting background counts (counts measured in the absence of enzyme) from each result, and comparing the resulting counts to those obtained in the absence of inhibitor. IC50 values were determined with curve-fitting plots available with common software packages. The IC50 was expressed as the concentration of compound which inhibited the enzyme activity by 50%.

Chain of p38α kinase (Q16539 whole entry): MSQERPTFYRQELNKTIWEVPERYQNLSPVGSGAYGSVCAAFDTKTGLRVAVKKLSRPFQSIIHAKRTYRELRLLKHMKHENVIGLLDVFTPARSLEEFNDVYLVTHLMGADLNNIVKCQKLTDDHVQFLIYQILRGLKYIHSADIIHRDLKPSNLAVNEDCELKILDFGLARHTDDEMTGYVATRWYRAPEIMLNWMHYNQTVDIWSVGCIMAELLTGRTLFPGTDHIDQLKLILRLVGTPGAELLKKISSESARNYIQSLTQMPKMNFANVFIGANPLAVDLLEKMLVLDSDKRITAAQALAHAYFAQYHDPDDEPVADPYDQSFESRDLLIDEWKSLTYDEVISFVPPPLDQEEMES

`COc1nc2[nH]cc(C(=O)C(=O)N3CCCC3)c2cc1C(=O)N1C[C@H](C)N(Cc2ccc(F)cc2)C[C@H]1C` [No. 5, 1-{5-[4-(4-Fluoro-benzyl)-2R,5S-dimethyl-piperazine-1-carbonyl]-6-methoxy-1H-pyrrolo[2,3-b]pyridin-3-yl}-2-pyrrolidin-1-yl-ethane-1,2-dione] and `CCOc1nc2[nH]cc(C(=O)C(=O)N3CCCC3)c2cc1C(=O)N1C[C@H](C)N(Cc2ccc(F)cc2)C[C@H]1C` [compound 59] are the same in IC50: 30 nM for the first, 30 nM for the second.

Compared with `COc1nc2[nH]c(C)c(C(=O)C(=O)N3CCCC3)c2cc1C(=O)N1CCC(Cc2ccc(F)cc2)CC1` [compound 15], `COc1nc2[nH]cc(C(=O)C(N)=O)c2cc1C(=O)N1CCC(Cc2ccc(F)cc2)CC1` [compound 17] is 1.5-fold higher in IC50: 38 nM for the first, 57 nM for the second. The first is the more potent here.

Compared with `CCNC(=O)C(=O)c1c[nH]c2nc(OC)c(C(=O)N3CCC(Cc4ccc(F)cc4)CC3)cc12` [compound 16], `COc1nc2[nH]cc(C(=O)C(=O)O)c2cc1C(=O)N1CCC(Cc2ccc(F)cc2)CC1` [compound 33] is 2.6-fold lower in IC50: 39 nM for the first, 15 nM for the second.

Going from `CNC(=O)C(=O)c1c[nH]c2nc(OC)c(C(=O)N3C[C@H](C)N(Cc4ccc(F)cc4)C[C@H]3C)cc12` [compound 18] to `CCOc1nc2[nH]cc(C(=O)C(=O)NC)c2cc1C(=O)N1C[C@H](C)N(Cc2ccc(F)cc2)C[C@H]1C` [compound 34], the IC50 rises from 20 nM to 30 nM (1.5-fold).

`COc1nc2[nH]cc(C(=O)C(=O)N(C)C)c2cc1C(=O)N1C[C@H](C)N(Cc2ccc(F)cc2)C[C@H]1C` [compound 19] and `CCN(C)C(=O)C(=O)c1c[nH]c2nc(OC)c(C(=O)N3C[C@H](C)N(Cc4ccc(F)cc4)C[C@H]3C)cc12` [compound 20] are within 1.5-fold of each other in IC50: 8.2 nM for the first, 12 nM for the second.

`COc1nc2[nH]cc(C(=O)C(=O)N3CC[C@@H](O)C3)c2cc1C(=O)N1C[C@H](C)N(Cc2ccc(F)cc2)C[C@H]1C` [compound 21] and `COc1nc2[nH]cc(C(=O)C(N)=O)c2cc1C(=O)N1C[C@H](C)N(Cc2ccc(F)cc2)C[C@H]1C` [compound 30] are the same in IC50: 10 nM for the first, 10 nM for the second.

Going from `COc1nc2[nH]cc(C(=O)C(=O)N(C)C)c2cc1C(=O)N1C[C@H](C)N(C(c2ccccc2)c2ccccc2)C[C@H]1C` [compound 22] to `CNC(=O)C(=O)c1c[nH]c2nc(OC)c(C(=O)N3C[C@H](C)N(C(c4ccccc4)c4ccccc4)C[C@H]3C)cc12` [compound 24], the IC50 falls from 70 nM to 42 nM (1.7-fold).

`COc1nc2[nH]cc(C(=O)C(=O)N3CCCC3)c2cc1C(=O)N1C[C@H](C)N(C(c2ccccc2)c2ccccc2)C[C@H]1C` [compound 23] and `COc1nc2[nH]cc(C(=O)C(=O)NC3CCCC3)c2cc1C(=O)N1C[C@H](C)N(C(c2ccccc2)c2ccccc2)C[C@H]1C` [compound 25] are within 1.5-fold of each other in IC50: 120 nM for the first, 130 nM for the second.

`COc1nc2[nH]cc(C(=O)C(F)(F)F)c2cc1C(=O)N1CCC(Cc2ccc(F)cc2)CC1` [compound 26] and `CCOc1nc2[nH]cc(C(=O)C(N)=O)c2cc1C(=O)N1CCC(Cc2ccc(F)cc2)CC1` [compound 37] are within 1.5-fold of each other in IC50: 95 nM for the first, 67 nM for the second.

Compared with `COc1nc2[nH]cc(C(=O)C(N)=O)c2cc1C(=O)N1CCN(Cc2ccc(F)cc2)C[C@H]1C` [compound 31], `CCOc1nc2[nH]cc(C(=O)C(N)=O)c2cc1C(=O)N1C[C@H](C)N(Cc2ccc(F)cc2)C[C@H]1C` [compound 35] is 5-fold lower in IC50: 100 nM for the first, 20 nM for the second. The second is the more potent here.

Going from `CNC(=O)C(=O)c1c[nH]c2nc(OC)c(C(=O)N3CCN([C@H](C)c4ccc(F)cc4)C[C@H]3C)cc12` [compound 32] to `COc1nc2[nH]cc(C(=O)C(=O)NC(C)C)c2cc1C(=O)N1C[C@H](C)N(Cc2ccc(F)cc2)C[C@H]1C` [compound 48], the IC50 rises from 30 nM to 50 nM (1.7-fold).

`CCOc1nc2[nH]cc(C(=O)C(=O)NC)c2cc1C(=O)N1CCC(Cc2ccc(F)cc2)CC1` [compound 36] and `CCOc1nc2[nH]cc(C(=O)C(=O)NC(C)C)c2cc1C(=O)N1C[C@H](C)N(Cc2ccc(F)cc2)C[C@H]1C` [compound 58] are within 1.5-fold of each other in IC50: 64 nM for the first, 50 nM for the second.

Compared with `COc1ccc(Cn2ccc3cc(C(=O)N4C[C@H](C)N(Cc5ccc(F)cc5)C[C@H]4C)c(OC)nc32)cc1` [compound 38], `CNC(=O)C(=O)c1cn(Cc2ccc(OC)cc2)c2nc(OC)c(C(=O)N3C[C@H](C)N(Cc4ccc(F)cc4)C[C@H]3C)cc12` [compound 39] is 2.5-fold lower in IC50: 1500 nM for the first, 610 nM for the second. The second is the more potent here.

Going from `Cc1nc2[nH]ccc2cc1C(=O)N1C[C@H](C)N(Cc2ccc(F)cc2)C[C@H]1C` [compound 40] to `Cc1nc2c(ccn2C)cc1C(=O)N1C[C@H](C)N(Cc2ccc(F)cc2)C[C@H]1C` [compound 60], the IC50 falls from 420 nM to 160 nM (2.6-fold). The second is the more potent here.

`COc1nc2c(cc1C(=O)N1C[C@H](C)N(Cc3ccc(F)cc3)C[C@H]1C)c(C(=O)C(N)=O)cn2C` [compound 41] and `CNC(=O)C(=O)c1cn(C)c2nc(OC)c(C(=O)N3C[C@H](C)N(Cc4ccc(F)cc4)C[C@H]3C)cc12` [compound 42] are the same in IC50: 20 nM for the first, 20 nM for the second.

First: COc1nc2c(cc1C(=O)N1C[C@H](C)N(Cc3ccc(F)cc3)C[C@H]1C)c(C(=O)C(=O)N(C)C)cn2C [compound 43]
Second: COc1nc2c(cc1C(=O)N1C[C@H](C)N(Cc3ccc(F)cc3)C[C@H]1C)c(C(=O)C(=O)N(C)OC)cn2C [compound 45]
The IC50 of the first is 2-fold lower: 10 nM for the first, 20 nM for the second. The first is the more potent here.

Going from `CCNC(=O)C(=O)c1cn(C)c2nc(OC)c(C(=O)N3C[C@H](C)N(Cc4ccc(F)cc4)C[C@H]3C)cc12` [compound 44] to `CONC(=O)C(=O)c1cn(C)c2nc(OC)c(C(=O)N3C[C@H](C)N(Cc4ccc(F)cc4)C[C@H]3C)cc12` [compound 50], the IC50 falls from 70 nM to 40 nM (1.8-fold).

`COc1nc2c(cc1C(=O)N1C[C@H](C)N(Cc3ccc(F)cc3)C[C@H]1C)c(C(=O)C(=O)N1CCCC1)cn2C` [compound 46] and `COCn1cc(C(=O)C(=O)N2CCCC2)c2cc(C(=O)N3C[C@H](C)N(Cc4ccc(F)cc4)C[C@H]3C)c(OC)nc21` [compound 56] are within 1.5-fold of each other in IC50: 50 nM for the first, 40 nM for the second.

Going from `CCNC(=O)C(=O)c1c[nH]c2nc(OC)c(C(=O)N3C[C@H](C)N(Cc4ccc(F)cc4)C[C@H]3C)cc12` [compound 47] to `CCNC(=O)C(=O)c1c[nH]c2nc(OCC)c(C(=O)N3C[C@H](C)N(Cc4ccc(F)cc4)C[C@H]3C)cc12` [compound 57], the IC50 rises from 20 nM to 30 nM (1.5-fold). The first is the more potent here.

`COc1nc2c(cc1C(=O)N1C[C@H](C)N(Cc3ccc(F)cc3)C[C@H]1C)c(C(=O)C(=O)NC(C)C)cn2C` [compound 49] and `CNC(=O)C(=O)c1cn(COC)c2nc(OC)c(C(=O)N3C[C@H](C)N(Cc4ccc(F)cc4)C[C@H]3C)cc12` [compound 54] are within 1.5-fold of each other in IC50: 60 nM for the first, 50 nM for the second.

Compared with `CCNC(=O)C(=O)c1cn(COC)c2nc(OC)c(C(=O)N3C[C@H](C)N(Cc4ccc(F)cc4)C[C@H]3C)cc12` [compound 51], `COCn1cc(C(=O)C(N)=O)c2cc(C(=O)N3C[C@H](C)N(Cc4ccc(F)cc4)C[C@H]3C)c(OC)nc21` [compound 53] is 2-fold lower in IC50: 60 nM for the first, 30 nM for the second.

First: COCn1cc(C(=O)C(=O)N(C)C)c2cc(C(=O)N3C[C@H](C)N(Cc4ccc(F)cc4)C[C@H]3C)c(OC)nc21 [compound 55]
Second: Cc1nc2[nH]cc(C(=O)C(=O)N(C)C)c2cc1C(=O)N1C[C@H](C)N(Cc2ccc(F)cc2)C[C@H]1C [compound 63]
The IC50 of the first is 1.5-fold lower: 20 nM for the first, 30 nM for the second. The first is the more potent here.

`CNC(=O)C(=O)c1cn(C)c2nc(C)c(C(=O)N3C[C@H](C)N(Cc4ccc(F)cc4)C[C@H]3C)cc12` [compound 61] and `CNC(=O)C(=O)c1c[nH]c2nc(C)c(C(=O)N3C[C@H](C)N(Cc4ccc(F)cc4)C[C@H]3C)cc12` [compound 62] are within 1.5-fold of each other in IC50: 90 nM for the first, 70 nM for the second.

`CCNC(=O)C(=O)c1c[nH]c2nc(C)c(C(=O)N3C[C@H](C)N(Cc4ccc(F)cc4)C[C@H]3C)cc12` [compound 64] and `Cc1nc2[nH]cc(C(=O)C(N)=O)c2cc1C(=O)N1C[C@H](C)N(Cc2ccc(F)cc2)C[C@H]1C` [compound 66] are the same in IC50: 80 nM for the first, 80 nM for the second.

First: Cc1nc2[nH]cc(C(=O)C(=O)N3CCCC3)c2cc1C(=O)N1C[C@H](C)N(Cc2ccc(F)cc2)C[C@H]1C [compound 65]
Second: COC(=O)C(=O)c1c[nH]c2cc(Cl)c(C(=O)N3C[C@H](C)N(Cc4ccc(F)cc4)C[C@H]3C)nc12 [compound 71]
The IC50 of the first is 2.4-fold higher: 80 nM for the first, 34 nM for the second. The second is the more potent here.

Going from `C[C@@H]1CN(Cc2ccc(F)cc2)[C@@H](C)CN1C(=O)c1ccc2[nH]ccc2n1` [compound 67] to `COc1cc2[nH]ccc2nc1C(=O)N1C[C@H](C)N(Cc2ccc(F)cc2)C[C@H]1C` [compound 74], the IC50 falls from 750 nM to 98 nM (7.7-fold). The second is the more potent here.

`COC(=O)C(=O)c1c[nH]c2ccc(C(=O)N3C[C@H](C)N(Cc4ccc(F)cc4)C[C@H]3C)nc12` [compound 68] and `CNC(=O)C(=O)c1c[nH]c2ccc(C(=O)N3C[C@H](C)N(Cc4ccc(F)cc4)C[C@H]3C)nc12` [compound 70] are within 1.5-fold of each other in IC50: 760 nM for the first, 600 nM for the second.

Compared with `C[C@@H]1CN(Cc2ccc(F)cc2)[C@@H](C)CN1C(=O)c1ccc2[nH]cc(C(=O)C(=O)O)c2n1` [compound 69], `C[C@@H]1CN(Cc2ccc(F)cc2)[C@@H](C)CN1C(=O)c1nc2c(C(=O)C(=O)O)c[nH]c2cc1Cl` [compound 72] is 50-fold lower in IC50: 700 nM for the first, 14 nM for the second.

`CNC(=O)C(=O)c1c[nH]c2cc(Cl)c(C(=O)N3C[C@H](C)N(Cc4ccc(F)cc4)C[C@H]3C)nc12` [compound 73] showed an IC50 of 20 nM.
